In patent publication US6264991A, “Compositions and methods for treating intracellular infections” (priority 1998, dated 2001):
≈ marks a conversion by molar mass, not a printed value. Where “and” joins values, the source holds several entries; their conditions need not be identical. Equal values may be shown once. Read-outs that look alike come from different tables or passages of the source.

Legend:
M. tuberculosis H37Rv [1] = conditions: free drug, all three concentrations (0.25, 0.75, 2.0 μg/ml)
M. tuberculosis H37Rv [2] = conditions: for log10 CFU: individual mice; for log10 CFU / Mean log10 CFU: day 26
M. tuberculosis H37Rv [3] = conditions: free rifampicin, all concentrations
[4] = test system: Mycobacterium tuberculosis H37Rv; assay: Minimal inhibitory concentration (Etest); type: cell-based, Mycobacterium tuberculosis H37Rv (ATCC 27294)
From the text: Mycobacterium tuberculosis H37Rv (ATCC 27294, SRI #1345) was maintained on Middlebrook 7H1O agar slants, containing 0.5% glycerol and 10% OADC (Difco).

[5] = test system: Mycobacterium tuberculosis; assay: MIC for rifampicin, tuberculosis in primates

## CO[C@H]1/C=C/O[C@@]2(C)Oc3c(C)c(O)c4c(O)c(c(/C=N/N5CCN(C)CC5)c(O)c4c3C2=O)NC(=O)/C(C)=C\C=C\[C@H](C)[C@H](O)[C@@H](C)[C@@H](O)[C@@H](C)[C@H](OC(C)=O)[C@@H]1C [Rifampicin]
M. tuberculosis H37Rv [1]
  reduction in CFUs, J774: significant reduction in CFUs
M. tuberculosis H37Rv [2]; oral 0.42 mg/kg daily, 0.42 mg/kg
  log10 CFU: 5.86 log10 CFU and 5.66 log10 CFU and 5.59 log10 CFU and 5.72 log10 CFU and 5.95 log10 CFU and 5.88 log10 CFU and 5.7 log10 CFU and 6.15 log10 CFU
M. tuberculosis H37Rv [2]; oral 0.42 mg/kg daily
  Mean log10 CFU: 5.62 log10 CFU
M. tuberculosis H37Rv [2]; oral 1.25 mg/kg daily, 1.25 mg/kg
  log10 CFU: 5.97 log10 CFU and 5.71 log10 CFU and 5.69 log10 CFU and 5.64 log10 CFU and 5.47 log10 CFU and 5.44 log10 CFU and 5.62 log10 CFU and 5.88 log10 CFU and 5.72 log10 CFU
M. tuberculosis H37Rv [2]; oral 1.25 mg/kg daily
  Mean log10 CFU: 5.68 log10 CFU
M. tuberculosis H37Rv [2]; oral 5.0 mg/kg daily, 5 mg/kg
  log10 CFU: 5.45 log10 CFU and 5.31 log10 CFU and 5.10 log10 CFU and 5.43 log10 CFU and 5.06 log10 CFU and 5.18 log10 CFU and 5.20 log10 CFU and 5.51 log10 CFU and 5.32 log10 CFU
M. tuberculosis H37Rv [2]; oral 5.0 mg/kg daily
  Mean log10 CFU: 5.27 log10 CFU
M. tuberculosis H37Rv [2]; oral 10 mg/kg daily, 10 mg/kg
  log10 CFU: 4.27 log10 CFU and 4.72 log10 CFU and 4.15 log10 CFU and 4.00 log10 CFU and 3.48 log10 CFU and 4.54 log10 CFU and 3.30 log10 CFU and 3.00 log10 CFU and 4.48 log10 CFU
M. tuberculosis H37Rv [2]; oral 10 mg/kg daily
  Mean log10 CFU: 3.99 log10 CFU
M. tuberculosis H37Rv [2]; oral 5.0 and 10 mg/kg, 26 days post-infection
  reductions in viable M. tuberculosis H37Rv: significant reductions
M. tuberculosis H37Rv [3]
  reduction of CFUs, MM6: significant reduction of CFUs
[4]
  MIC: 0.06 to 0.25 µg/mL (≈ 0.0729 to 0.304 µM)
[4]; Etest, read-out: minimal inhibitory concentration (MIC)
  MIC: 0.06 to 0.25 µg/mL (≈ 0.0729 to 0.304 µM)
[5]
  MIC: 0.06 to 0.25 µg/mL (≈ 0.0729 to 0.304 µM)
